Data as given in patent US20150307539A1, “USE OF SULPHATED G[…] PROMOTERS OF NEURITIC GROWTH, M[…] INHIBITING THE PROLIFERATION OF ASTROGLIA AND MICROGLIA” (CONSEJO SUPERIOR DE INVESTIGACIONES CIENTIFICAS (CSIC), priority 2012, published 2015).

Assays:
[1] = tested on: Astrocytes (primary astroblasts from cerebral cortices of postnatal rats); test: Inhibition of astroglial cell proliferation, primary astroblasts; type: cell-based, rat; conditions: for IC50: Astrocytes, astroglia, rat, IC50 ± SE
From the text: (§1) To study the microglial and astroglial cell proliferation two cell lines of murine microglia were used (BV-2, N13), as well as primary astroblasts isolated from cerebral cortices of postnatal rats on day zero (P0). The cells were kept in DMEM plus 10% SBF, grown and treated for testing the inhibition of cell proliferation, as published earlier by the applicants (I. Garcia-Alvarez et al., J Med Chem 50, 364 (Jan. 25, 2007)). […] It was concluded that the inhibitory activity of IG20-NBD is not affected by the presence of the fluorescent group, as its IC50 is very similar to that obtained for the uncombined glycoside IG-20, which was used as a control in these tests.

N13 microglia = test: Inhibition of microglial cell proliferation, N13; type: cell-based, mouse; conditions: for IC50: N13, microglia, mouse, IC50 ± SE
From the text: as §1

[2] = tested on: neurons of spinal ganglia (SG) of rat embryos (E15); test: Neuritic outgrowth of spinal ganglia neurons co-cultured on aldynoglia; type: cell-based
Experimental: Spinal ganglia (SG) of rat embryos (E15) were dissected and incubated for 12 hours on axon growth-promoting cells (aldynoglia) to allow cellular adhesion of the neurons contained in the SG to the aldynoglia substrate. Next, different concentrations of IG-20, compound 3 produced as described in the synthesis examples, were added. […] The presence of total cells is shown by the fluorescent signal of the Hoechst-marked nuclei (FIG. 1a, 1b, 1c). The nuclei remote from the central body are aldynoglia cells or those that migrate from the SG. The neurofilament images were extracted (FIG. 1g, 1h, 1i) and measured, and the neuritic growth area was compared to the controls (FIG. 1j, 1k). […] A net increase in the neuritic growth area of 1250 μm^2 more than the control with aldynoglia cells (FIG. 1k) was produced. The average speed of neuritic outgrowth in the presence of aldynoglia, 625 μm/72 h corresponding to […], was duplicated in the presence of IG-20 (5 μM) up to 1250 μm/72 h, which corresponds to 17.36 μm/h. Calibration bars at 500 μm; (*) correspond to P<0.05 (P=0.019).

BV-2 microglia = test: Inhibition of microglial cell proliferation, BV-2; type: cell-based; conditions: mouse, IC50 ± SE
From the text: as §1

RhoGDIα protein [3] = molecular target: T1, RhoGDIα protein (Mus musculus, UniProt Q99PT1); test: Co-immunoprecipitation with anti-RhoGDIα antibody (Western blot and MS), BV-2 microglia; type: binding; conditions: BV-2 microglia treated with 30 μM, cytosol fraction
T1 construct: This was verified by RhoGDIα immunoprecipitation in the microglial cell line BV-2; endogenous in cells; host or cells: BV-2 microglial cell line
T1 sequence (Q99PT1 1-204): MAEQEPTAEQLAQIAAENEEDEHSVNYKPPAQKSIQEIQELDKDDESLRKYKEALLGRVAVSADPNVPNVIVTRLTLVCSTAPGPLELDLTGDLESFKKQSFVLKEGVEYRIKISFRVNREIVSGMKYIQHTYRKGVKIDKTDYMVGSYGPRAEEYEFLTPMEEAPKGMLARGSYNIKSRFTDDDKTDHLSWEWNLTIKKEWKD
Experimental: (§2) Primary astrocyte and microglia cells (BV-2) were treated with the glycoside IG-20 at 30 μM, lysed and subjected to cell fractionation by differential centrifugation. The soluble fraction was collected and mixed with lysis buffer (1:1). Anti-RhoGDIα antibody (15 μg) was added and it was incubated with rotation at 4° C. overnight. It was immunoprecipitated with Protein A-Sepharose (20 μl) having been previously washed with PBS and centrifuged for 3 minutes at 1100 rpm. The previous mixture was added to the Protein A-Sepharose (1:1). This mixture was incubated with rotation at 4° C. for an hour and a half, and afterwards centrifuged for 5 minutes at 2500 rpm at 4° C. After discarding the supernatant, the precipitate was washed three times with lysis buffer. The immunocomplex of the Protein A-Sepharose was eluted with five volumes of the elution buffer (0.1 M glycine, pH=2.9) and a neutralising volume of 1M tris-HCl, pH=9. The mixture was centrifuged for five minutes at 2500 rpm at 4° C. and the supernatant was collected. […]
(§3) This was verified by RhoGDIα immunoprecipitation in the microglial cell line BV-2, and also in primary astrocyte cultures. […] This was detected by MS as a peak in the mass to charge ratio of 550 (FIG. 4c, 4d), which corresponds to the synthetic glycoside. […]

[4] = tested on: oligodendrocytes and astroglia from cerebral cortices of postnatal rats P0-P1; test: Oligodendrocyte growth, myelin (MBP) expression and astroglia (GFAP) inhibition in cortical glial culture; type: cell-based, rat; conditions: 30 μM, two weeks culture
Experimental: To study how the compound having formula I affects the growth of oligodendrocytes, the expression of myelin and the inhibition of astroglia, cerebral cortices of postnatal rats P0-P1 were dissected and enzymatically dissociated for cell culture. After two weeks incubation the culture flasks were stirred for 12 hours. The cells in suspension were harvested, the microglia were removed, and then cultured in DMEM plus SBF 10%. It was incubated for 6 hours to facilitate cell adhesion and the IG-20 (30 μM) was added to the treated group. The cells were cultured for two weeks and the medium was replaced every three days.
In both cases the differences were very significant. It was notable that the astroglial cells were large compared with the oligodendrocytes, which could scarcely be detected in the untreated controls (arrow in 2a, b). […] GFAP, glial fibrillary acidic protein; MBP, myelin basic protein; calibration bars at 75 μm (a, c) and 25 μm (b), as shown; (***) corresponds to P<0.001.

RhoGDIα protein [5] = molecular target: T2, RhoGDIα protein (Rattus norvegicus, UniProt Q5XI73); test: Co-immunoprecipitation with anti-RhoGDIα antibody (Western blot and MS), primary astrocytes; type: binding; conditions: primary astrocytes treated with 30 μM, cytosol fraction
T2 construct: This was verified by RhoGDIα immunoprecipitation in the microglial cell line BV-2, and also in primary astrocyte cultures; endogenous in cells; host or cells: primary astrocyte cultures
T2 sequence (Q5XI73 1-204): T1 sequence (Q99PT1 1-204)
Experimental: as §2, §3

SMILES	activity in astrocytes compared with IG-20 ([1]; 30 μM compared with 9.3 μM)	IC50 [1] [µM]	IC50 (N13 microglia) [µM]	microglial inhibition compared with IG-20 (N13 microglia; microglia)	IC50 ([1]; Astrocyte) [µM]	net increase in the neuritic growth area more than the control with aldynoglia cells ([2]; 5 μM, 3 days incubation) [μm^2]	neuritic outgrowth compared with control aldynoglia ([2]; 5 μM, 3 days incubation, SG/aldynoglia co-culture)	average speed of neuritic outgrowth ([2]; 5 μM, control aldynoglia 8.3 μm/h) [μm/h]	average speed of neuritic outgrowth ([2]; 5 μM, control aldynoglia 625 μm/72 h) [μm/72 h]	neuritic outgrowth at five-fold increased concentration ([2]; five-fold increase of 5 μM, 3 days incubation)	IC50 (BV-2 microglia) [µM]	interaction with RhoGDIα (co-immunoprecipitation) (RhoGDIα protein [3])	GFAP marking compared with untreated control [4]	MBP signal compared with untreated control [4]	increase of mature oligodendroglia, MBP+ [4] [%]	oligodendrocyte size relative to controls [4]	reduction of the proportion of GFAP+ cells (astroglia) [4] [%]	interaction with RhoGDIα (co-immunoprecipitation) (RhoGDIα protein [5])
CCCCCCCC/C=C\CCCCCCCCO[C@H]1O[C@H](COS(=O)(=O)[O-])[C@@H](O)[C@H](OS(=O)(=O)[O-])[C@H]1NC(=O)C(F)(F)F.[K+].[K+] [Disulphated IG-20, potash from oleyl N-trifluoroacetyl-3,6-O-di-(oxo-sulphonyl)-α-D-glucosaminide]	reduced its activity by three	30	3 ± 0.8	microglial inhibition was not affected														
CCCCCCCC/C=C\CCCCCCCCO[C@H]1O[C@H](COS(=O)(=O)O)[C@@H](O)[C@H](O)[C@H]1NC(=O)CCCCCNc1ccc([N+](=O)[O-])c2nonc12 [IG20-NBD, potash from oleyl 2-[6-(7-nitrobenzofurazan)-aminohexanamide]-6-O-(oxo-sulphonyl)-α-D-glucosaminide]			7.8		11.4													
CCCCCCCC/C=C\CCCCCCCCO[C@H]1O[C@H](COS(=O)(=O)[O-])[C@@H](O)[C@H](O)C1NC(C)=O.[K+] (stereo partly drawn) [IG-20, potash from oleyl N-acetyl-6-O-(oxo-sulphonyl)-α-D-glucosaminide]			3.4		9.3	1250	profuse and significant increase in neuritic outgrowth	17.36	1250	reduced this neuritic outgrowth	21	interacts directly with the RhoGDIα protein	dramatic reduction in GFAP marking	increase in the MBP signal	10	3-4 times larger than the controls	20	interacts directly with the RhoGDIα protein
